Values after ≈ are worked out from the molar mass of the structure shown. Values joined by “and” are separate entries in the source; they are usually repeats but may differ in a detail not shown here. Identical values can stand only once. Like-named read-outs stand apart in the source and are kept apart here.
Experiments:
[1] = Compound solubility in PBS (pH 7.4), LC-MS/MS; conditions: pH 7.4, aqueous buffer, kinetic from dmso stock; for solubility at 1 h: PBS (pH 7.4)
Description: • Test concentration: 100 μM (1% of DMSO) • Test systems: PBS (pH 7.4) • Incubation condition: shaken (1000 rpm) for 1 h at room temperature • Sample size: Duplicates (n=2) • Bioanalytical method: LC-MS/MS

[2] = system: C57BL/6 Diet Induced Obese (DIO) mice; assay: Oral (P.O.) administration study in DIO mice: in vivo activity, body weights; set-up: species or system mouse; conditions: for Individual Body Weight: individual male animals; for change in vivo at 2 mg/kg: Mus musculus, po, read-out: Body weight, %-Diff; for Individual Body Weight, DSNG 1: dosing phase day 1; for Individual Body Weight, DSNG 2: dosing phase day 2; for Individual Body Weight, PRED 11: pre-dose phase day 11 (baseline); for Individual Body Weight, PRED 12: pre-dose phase day 12 (baseline); for Individual Body Weight, PRED 13: pre-dose phase day 13 (baseline); for Individual Body Weight, PRED 14: pre-dose phase day 14 (baseline)
Summary of the method: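 Male C57BL/6 DIO mice (21-22 weeks, 29.8-40.1 g) were gavage-acclimated with vehicle, then dosed orally once daily for 10 days at 2 mL/kg. Body weight was recorded daily before dosing. Cumulative change and AUC were analysed by one-way ANOVA with Dunnett's test.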

[3] = system: C57BL/6 Diet Induced Obese (DIO) mice; assay: Oral (P.O.) administration study in DIO mice: animal fate (mortality) and clinical observations; conditions: 2 mg/kg
Description: Male C57BL/6 DIO mice were assigned to 12 groups, and doses of 2 mg/kg Celastrol (ERX1000-4), ERX1006, ERX1007, ERX1037, ERX1060, ERX1077, ERX1107, ERX1149, ERX1168, ERX1177, and Pristimerin were administered to Groups 2 through 12, respectively. Animals were dosed via oral gavage once daily for 10 days at a volume of 2 mL/kg. The vehicle control article was 1% methyl cellulose (400 cps) in citric acid and phosphate buffer.
Parameters assessed included mortality, clinical observations, body weights and food consumption and blood glucose evaluations.
All animals were anesthetized via carbon dioxide, sacrificed, and discarded without further evaluation on Day 11.

[4] = individual male DIO mouse, 2 mg/kg, 2 mg/kg
[5] = individual male DIO mouse, group dosed 2 mg/kg, 2 mg/kg
[6] = individual male DIO mouse of the 2 mg/kg group

CC1=C(O)C(=O)C=C2C1=CC=C1[C@@]2(C)CC[C@@]2(C)[C@@H]3C[C@](C)(N(C)C)CC[C@]3(C)CC[C@]12C [ERX1177]
solubility at 1 h ([1]; Solubility (μM) Mean, Table 6-B, test concentration 100 μM (1% of DMSO), shaken (1000 rpm) 1 h at room temperature, n = 2): 49.5 µM (≈ 22.3 µg/mL)
solubility at 1 h ([1]; Solubility (μM), Table 6-D): 49.5 µM (≈ 22.3 µg/mL)
Individual Body Weight ([2]; 2 mg/kg, Phase Day DSNG 3): 31.8 g (2×) and 34.6 g (2×) and 38.2 g
Individual Body Weight ([2]; 2 mg/kg, Phase Day DSNG 4): 31.2 g and 30.8 g and 34.8 g and 37.7 g and 34.2 g
Individual Body Weight ([2]; 2 mg/kg, Phase Day DSNG 5): 31.3 g and 30.9 g and 34.2 g and 38.0 g and 34.4 g
Individual Body Weight ([2]; 2 mg/kg, Phase Day DSNG 6): 31.4 g and 30.1 g and 33.7 g and 38.1 g and 34.4 g
Individual Body Weight ([2]; 2 mg/kg, Phase Day DSNG 7): 31.4 g and 29.9 g and 33.7 g and 38.0 g and 34.1 g
Individual Body Weight ([2]; 2 mg/kg, Phase Day DSNG 8): 31.0 g and 29.8 g and 33.4 g and 37.8 g and 33.7 g
Body weight, Mean ([2]; DIO mice, male, 2 mg/kg, phase DSNG, Day 7): 33.4 g
Body weight, Mean ([2]; DIO mice, male, 2 mg/kg, phase DSNG, Day 8): 33.1 g
Body weight, Mean ([2]; DIO mice, male, 2 mg/kg, phase DSNG, Day 9): 33.0 g
Body weight, Mean ([2]; DIO mice, male, 2 mg/kg, phase DSNG, Day 10): 33.1 g
Body weight, Mean ([2]; DIO mice, male, 2 mg/kg, phase DSNG, Day 11): 33.0 g
Body weight, Mean ([2]; Day 1, DSNG phase, 2 mg/kg, male, N=5): 34.9 g
Body weight, Mean ([2]; Day 2, DSNG phase, 2 mg/kg, male, N=5): 34.4 g
Body weight, Mean ([2]; Day 3, DSNG phase, 2 mg/kg, male, N=5): 34.2 g
Body weight, Mean ([2]; Day 4, DSNG phase, 2 mg/kg, male, N=5): 33.7 g
Body weight, Mean ([2]; Day 5, DSNG phase, 2 mg/kg, male, N=5): 33.8 g
Body weight, Mean ([2]; Day 6, DSNG phase, 2 mg/kg, male, N=5): 33.5 g
change in vivo at 2 mg/kg ([2]; 24 h, Day 1, DSNG phase, 2 mg/kg, male, difference of group mean): 2%
change in vivo at 2 mg/kg ([2]; 48 h, Day 2, DSNG phase, 2 mg/kg, male, difference of group mean): 0%
change in vivo at 2 mg/kg ([2]; 72 h, Day 3, DSNG phase, 2 mg/kg, male, difference of group mean): 1%
change in vivo at 2 mg/kg ([2]; 96 h, Day 4, DSNG phase, 2 mg/kg, male, difference of group mean): 1%
change in vivo at 2 mg/kg ([2]; 120 h, Day 5, DSNG phase, 2 mg/kg, male, difference of group mean): 0%
change in vivo at 2 mg/kg ([2]; 144 h, Day 6, DSNG phase, 2 mg/kg, male, difference of group mean): 0%
change in vivo at 2 mg/kg ([2]; 168 h, DIO mice, male, 2 mg/kg, phase DSNG, Day 7, difference of group mean from vehicle group 1): 0%
change in vivo at 2 mg/kg ([2]; 192 h, DIO mice, male, 2 mg/kg, phase DSNG, Day 8, difference of group mean from vehicle group 1): -2%
change in vivo at 2 mg/kg ([2]; 216 h, DIO mice, male, 2 mg/kg, phase DSNG, Day 9, difference of group mean from vehicle group 1): -1%
change in vivo at 2 mg/kg ([2]; 240 h, DIO mice, male, 2 mg/kg, phase DSNG, Day 10, difference of group mean from vehicle group 1): -1%
change in vivo at 2 mg/kg ([2]; 264 h, DIO mice, male, 2 mg/kg, phase DSNG, Day 11, difference of group mean from vehicle group 1): -3%
Individual Body Weight, DSNG 1 [2, 4]: 32.0 g and 32.1 g and 35.5 g and 40.1 g and 35.0 g
Individual Body Weight, DSNG 2 [2, 4]: 32.2 g and 31.9 g and 34.5 g and 38.4 g and 34.9 g
Individual Body Weight, PRED 11 [2, 5]: 33.8 g and 33.3 g and 37.1 g and 41.9 g and 35.5 g
Individual Body Weight, PRED 12 [2, 5]: 32.5 g and 33.7 g and 36.7 g and 41.6 g and 36.2 g
Individual Body Weight, PRED 13 [2, 5]: 31.8 g and 32.6 g and 35.6 g and 42.2 g and 36.1 g
Individual Body Weight, PRED 14 [2, 5]: 31.7 g and 33.1 g and 36.4 g and 41.7 g and 36.2 g
Individual Animal Fate: Fate Status ([3]; mouse, in vivo): Scheduled Sacrifice

CC(=O)OC1=C(C)C2=CC=C3[C@@](C)(CC[C@@]4(C)[C@@H]5C[C@](C)(C(=O)O)CC[C@]5(C)CC[C@]34C)C2=CC1=O [ERX1007]
solubility ([1]; Solubility (μM)): 48.8 µM (≈ 24 µg/mL)
solubility ([1]; Solubility (μM) Mean): 48.8 µM (≈ 24 µg/mL)
Body weight %-Diff ([2]; 2 mg/kg oral gavage once daily, dosing phase Day 1): 1%
Body weight, Mean ([2]; 2 mg/kg oral gavage once daily, dosing phase Day 1, N 5): 34.5 g
Body weight %-Diff ([2]; 2 mg/kg oral gavage once daily, dosing phase Day 2): −1%
Body weight, Mean ([2]; 2 mg/kg oral gavage once daily, dosing phase Day 2, N 5): 34.1 g
Body weight %-Diff ([2]; 2 mg/kg oral gavage once daily, dosing phase Day 3): −2%
Body weight, Mean ([2]; 2 mg/kg oral gavage once daily, dosing phase Day 3, N 5): 33.3 g
Body weight %-Diff ([2]; 2 mg/kg oral gavage once daily, dosing phase Day 4): 0%
Body weight, Mean ([2]; 2 mg/kg oral gavage once daily, dosing phase Day 4, N 5): 33.3 g
Body weight %-Diff ([2]; 2 mg/kg oral gavage once daily, dosing phase Day 5): −2%
Body weight, Mean ([2]; 2 mg/kg oral gavage once daily, dosing phase Day 5, N 5): 33.1 g
Body weight %-Diff ([2]; 2 mg/kg oral gavage once daily, dosing phase Day 6): −3%
Body weight, Mean ([2]; 2 mg/kg oral gavage once daily, dosing phase Day 6, N 5): 32.4 g
Body weight, Mean ([2]; Day 7, DSNG phase, 2 mg/kg, male, N=5): 32.4 g
Body weight, Mean ([2]; Day 8, DSNG phase, 2 mg/kg, male, N=5): 32.7 g
Body weight, Mean ([2]; Day 9, DSNG phase, 2 mg/kg, male, N=5): 32.3 g
Body weight, Mean ([2]; Day 10, DSNG phase, 2 mg/kg, male, N=5): 32.1 g
Body weight, Mean ([2]; Day 11, DSNG phase, 2 mg/kg, male, N=5): 32.3 g
change in vivo at 2 mg/kg ([2]; 168 h, Day 7, DSNG phase, 2 mg/kg, male, difference of group mean): -3%
change in vivo at 2 mg/kg ([2]; 192 h, Day 8, DSNG phase, 2 mg/kg, male, difference of group mean): -3%
change in vivo at 2 mg/kg ([2]; 216 h, Day 9, DSNG phase, 2 mg/kg, male, difference of group mean): -3%
change in vivo at 2 mg/kg ([2]; 240 h, Day 10, DSNG phase, 2 mg/kg, male, difference of group mean): -4%
change in vivo at 2 mg/kg ([2]; 264 h, Day 11, DSNG phase, 2 mg/kg, male, difference of group mean): -5%
Individual Body Weight, PRED 11 [2, 6]: 36.8 g and 39.8 g and 35.7 g and 32.5 g and 37.6 g
Individual Body Weight, PRED 12 [2, 6]: 35.2 g and 38.9 g and 35.7 g and 31.7 g and 36.9 g
Individual Body Weight, PRED 13 [2, 6]: 34.1 g and 38.7 g and 35.3 g and 32.3 g and 36.5 g
Individual Body Weight, PRED 14 [2, 6]: 34.2 g and 38.6 g and 35.2 g and 32.7 g and 37.3 g
Individual Body Weight, DSNG 1 [2, 4]: 33.8 g and 36.3 g and 34.7 g and 31.4 g and 36.2 g
Individual Body Weight, DSNG 2 [2, 4]: 33.2 g and 36.4 g and 34.2 g and 30.3 g and 36.2 g
Individual Animal Fate: Fate Status ([3]; individual male animals, phase of fate Dosing, phase week 2, phase day 11): Scheduled Sacrifice

Source: US10662218B2, “Analogs of celastrol” (ERX Pharmaceuticals, Inc., priority 2015, dated 2020)
